{
  "source": "ChEMBL document CHEMBL5331129",
  "about": "“Discovery of NAFLD-Improving Agents by Promoting the Degradation of Keap1” (J Med Chem, 2023)",
  "key": {"Mus musculus [1]": {"tested_on": "Mus musculus", "assay": "Antioxidant activity against MCD diet-induced oxidative stress in C57Bl/6 mouse model of NAFLD assessed as increase in CAT level in liver at 0.5 to 2 mg/kg,ip administrated for 4 weeks", "type": "functional, organism-based", "settings": "dose 0.5-2 mg/kg"}, "Mus musculus [2]": {"tested_on": "Mus musculus", "assay": "Antioxidant activity against MCD diet-induced oxidative stress in C57Bl/6 mouse model of NAFLD assessed as reduction of liver macrophage infiltration at 0.5 to 2 mg/kg,ip administrated for 4 weeks by immunostaining assay", "type": "functional, organism-based", "settings": "dose 0.5-2 mg/kg"}, "[3]": {"target": "Protein cereblon/Kelch-like ECH-associated protein 1 (Mus musculus, UniProt Q9Z2X8+Q8C7D2)", "sequence (Q9Z2X8 whole entry)": "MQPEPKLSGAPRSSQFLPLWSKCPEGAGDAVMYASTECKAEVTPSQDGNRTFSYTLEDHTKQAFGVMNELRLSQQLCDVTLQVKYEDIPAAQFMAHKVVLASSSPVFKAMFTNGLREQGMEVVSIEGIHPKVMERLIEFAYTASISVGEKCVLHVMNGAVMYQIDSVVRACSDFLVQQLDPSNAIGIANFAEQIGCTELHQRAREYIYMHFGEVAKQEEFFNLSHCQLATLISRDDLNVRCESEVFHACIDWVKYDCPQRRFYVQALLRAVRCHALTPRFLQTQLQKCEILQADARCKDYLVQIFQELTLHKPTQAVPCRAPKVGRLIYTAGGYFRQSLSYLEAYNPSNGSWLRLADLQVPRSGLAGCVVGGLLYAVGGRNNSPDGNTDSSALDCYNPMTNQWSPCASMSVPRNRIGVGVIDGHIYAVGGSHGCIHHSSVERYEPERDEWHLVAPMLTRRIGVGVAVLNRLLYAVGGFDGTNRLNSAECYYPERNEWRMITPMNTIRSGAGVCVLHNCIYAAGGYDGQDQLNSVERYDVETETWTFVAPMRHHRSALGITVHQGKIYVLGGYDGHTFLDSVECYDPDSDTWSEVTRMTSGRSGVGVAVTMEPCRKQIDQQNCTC", "sequence (Q8C7D2 whole entry)": "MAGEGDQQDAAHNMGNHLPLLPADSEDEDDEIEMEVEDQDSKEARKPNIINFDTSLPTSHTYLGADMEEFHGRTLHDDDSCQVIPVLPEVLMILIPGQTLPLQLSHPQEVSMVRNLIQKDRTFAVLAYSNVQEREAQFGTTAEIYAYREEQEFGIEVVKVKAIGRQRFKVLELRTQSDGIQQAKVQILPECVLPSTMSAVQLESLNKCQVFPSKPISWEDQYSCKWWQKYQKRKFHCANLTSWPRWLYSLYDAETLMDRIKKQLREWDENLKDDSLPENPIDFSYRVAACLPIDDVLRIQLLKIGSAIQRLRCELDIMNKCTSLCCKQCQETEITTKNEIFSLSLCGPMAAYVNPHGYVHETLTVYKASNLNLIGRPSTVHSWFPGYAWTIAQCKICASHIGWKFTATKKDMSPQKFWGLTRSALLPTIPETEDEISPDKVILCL", "assay": "PROTAC activity at CRBN/Keap1 in mouse AML12 cells assessed as degradation of Keap1 protein at 0.5 to 2 uM incubated for 48 hrs by Western blotting analysis", "type": "cell-based"}, "[4]": {"assay": "Toxicity in C57BL/6 mouse assessed as histopathological change in kidney at 2 mg/kg,ip qd administrated for 4 weeks by hematoxylin and eosin staining based assay", "type": "organism-based", "settings": "in vivo, 672 h"}, "[5]": {"target": "T1, Protein cereblon/Kelch-like ECH-associated protein 1 (Mus musculus) (UniProt Q9Z2X8+Q8C7D2)", "T1 sequence (Q8C7D2 whole entry, looked up)": "as the sequence (Q8C7D2 whole entry) above", "T1 sequence (Q9Z2X8 whole entry, looked up)": "as the sequence (Q9Z2X8 whole entry) above", "assay": "PROTAC activity at CRBN/Keap1 in mouse AML12 cells assessed as degradation of Keap1 protein level at 1 uM preincubated with CDDO followed by compound addition and incubated for 24 hrs by Western blotting analysis", "type": "cell-based"}, "[6]": {"assay": "Cardiotoxicity in zebrafish at 10 uM observed at 72 hrs post fertilization", "type": "toxicity, Danio rerio"}, "AML12 [7]": {"tested_on": "AML12", "assay": "Antioxidant activity against free fatty acid induced oxidative stress in mouse AML12 cells assessed as reduction in total cholesterol level at 0.5 uM incubated for 24 hrs", "type": "functional, cell-based"}, "AML12 [8]": {"tested_on": "AML12", "assay": "Antioxidant activity against free fatty acid induced oxidative stress in mouse AML12 cells assessed as increase in GSH level at 0.125 to 0.5 uM", "type": "functional, cell-based", "settings": "dose 0.125-0.5 µM"}, "AML12 [9]": {"tested_on": "AML12", "assay": "Cytotoxicity against mouse AML12 cells at 0.5 uM incubated for 24 hrs by MTT assay", "type": "toxicity, cell-based", "settings": "aml12, 24 h"}, "Mus musculus [10]": {"tested_on": "Mus musculus", "assay": "Antioxidant activity against MCD diet-induced oxidative stress in C57Bl/6 mouse model of NAFLD assessed as reduction of serum AST level at 0.5 to 2 mg/kg,ip administrated for 4 weeks", "type": "functional, organism-based", "settings": "dose 0.5-2 mg/kg"}, "[11]": {"assay": "Toxicity in MCD diet-induced oxidative stress in C57Bl/6 mouse model of NAFLD assessed as decrease in ratio of liver weight to body weight at ip administrated for 4 weeks […]", "type": "organism-based", "settings": "in vivo, 672 h"}, "[12]": {"target": "T1, Protein cereblon/Kelch-like ECH-associated protein 1 (Mus musculus)", "assay": "PROTAC activity at CRBN/Keap1 in mouse AML12 cells assessed as degradation of Keap1 protein at 0.5 to 2 uM incubated for 24 hrs by Western blotting analysis", "type": "cell-based", "settings": "dose 0.5-2 µM"}, "[13]": {"assay": "Acute toxicity in C57BL/6 mouse assessed as histopathological change in liver at 20 mg/kg,ip qd administrated for 3 consecutive days and measured on day 4 by hematoxylin and eosin staining based assay", "type": "organism-based", "settings": "in vivo"}, "Mus musculus [14]": {"tested_on": "Mus musculus", "assay": "Antioxidant activity against MCD diet-induced oxidative stress in C57Bl/6 mouse model of NAFLD assessed as reduction of serum TG level at 0.5 to 2 mg/kg,ip administrated for 4 weeks", "type": "functional, organism-based", "settings": "dose 0.5-2 mg/kg"}, "[15]": {"assay": "Toxicity in C57BL/6 mouse assessed as histopathological change in lung at 2 mg/kg,ip qd administrated for 4 weeks by hematoxylin and eosin staining based assay", "type": "organism-based", "settings": "in vivo, 672 h"}, "[16]": {"assay": "Toxicity in MCD diet-induced oxidative stress in C57Bl/6 mouse model of NAFLD assessed as body weight loss at 2 mg/kg,ip administrated for 4 weeks […]", "type": "organism-based", "settings": "in vivo, 672 h"}, "[17]": {"assay": "Toxicity in C57BL/6 mouse assessed as histopathological change in heart at 2 mg/kg,ip qd administrated for 4 weeks by hematoxylin and eosin staining based assay", "type": "organism-based", "settings": "in vivo, 672 h"}, "[18]": {"assay": "Acute toxicity in zebrafish at < 5 uM observed at 48 hrs post fertilization", "parameters": "species or system Danio rerio", "settings": "in vivo"}, "Mus musculus [19]": {"tested_on": "Mus musculus", "assay": "Antioxidant activity against MCD diet-induced oxidative stress in C57Bl/6 mouse model of NAFLD assessed as downregulation of liver Keap1 protein expression level at 0.5 to 2 mg/kg,ip administrated for 4 weeks by immunofluorescence staining analysis", "type": "functional, organism-based", "settings": "dose 0.5-2 mg/kg"}, "AML12 [20]": {"tested_on": "AML12", "assay": "Antioxidant activity against free fatty acid induced oxidative stress in mouse AML12 cells assessed as upregulation of Nrf2 protein expression level at 0.125 to 0.5 uM incubated for 24 hrs by immunoblot analysis", "type": "functional, cell-based", "settings": "dose 0.125-0.5 µM"}, "Mus musculus [21]": {"tested_on": "Mus musculus", "assay": "Antioxidant activity against MCD diet-induced oxidative stress in C57Bl/6 mouse model of NAFLD assessed as reduction of morphological change in liver at ip administrated for 4 weeks by hematoxylin and eosin staining based assay", "type": "functional, organism-based"}, "[22]": {"assay": "Acute toxicity in C57BL/6 mouse assessed as histopathological change in spleen at 20 mg/kg,ip qd administrated for 3 consecutive days and measured on day 4 by hematoxylin and eosin staining based assay", "type": "organism-based", "settings": "in vivo"}, "[23]": {"assay": "Acute toxicity in C57BL/6 mouse assessed as histopathological change in lung at 20 mg/kg,ip qd administrated for 3 consecutive days and measured on day 4 by hematoxylin and eosin staining based assay", "type": "organism-based", "settings": "in vivo"}, "AML12 [24]": {"tested_on": "AML12", "assay": "Antioxidant activity against free fatty acid induced oxidative stress in mouse AML12 cells assessed as upregulation of NQO1 protein expression level at 0.125 to 0.5 uM incubated for 24 hrs by immunoblot analysis", "type": "functional, cell-based", "settings": "dose 0.125-0.5 µM"}, "AML12 [25]": {"tested_on": "AML12", "assay": "Antioxidant activity against free fatty acid induced oxidative stress in mouse AML12 cells assessed as downregulation of Keap1 protein expression level at 0.125 to 0.5 uM incubated for 24 hrs by immunofluorescence staining analysis", "type": "functional, cell-based", "settings": "dose 0.125-0.5 µM"}, "[26]": {"target": "T1, Protein cereblon/Kelch-like ECH-associated protein 1 (Mus musculus)", "assay": "PROTAC activity at CRBN/Keap1 in mouse AML12 cells assessed as degradation of Keap1 protein at 1 uM incubated for 24 hrs by Western blotting analysis", "type": "cell-based"}, "AML12 [27]": {"tested_on": "AML12", "assay": "Antioxidant activity against free fatty acid induced oxidative stress in mouse AML12 cells assessed as increase in SOD level at 0.125 to 0.5 uM", "type": "functional, cell-based", "settings": "dose 0.125-0.5 µM"}, "[28]": {"assay": "Acute toxicity in C57BL/6 mouse assessed as histopathological change in kidney at 20 mg/kg,ip qd administrated for 3 consecutive days and measured on day 4 by hematoxylin and eosin staining based assay", "type": "organism-based", "settings": "in vivo"}, "AML12 [29]": {"tested_on": "AML12", "assay": "Antioxidant activity against free fatty acid induced oxidative stress in mouse AML12 cells assessed as upregulation of Nrf2 protein expression level at 0.125 to 0.5 uM incubated for 24 hrs by immunofluorescence staining analysis", "type": "functional, cell-based", "settings": "dose 0.125-0.5 µM"}, "Mus musculus [30]": {"tested_on": "Mus musculus", "assay": "Antioxidant activity against MCD diet-induced oxidative stress in C57Bl/6 mouse model of NAFLD assessed as upregulation of liver Nrf2 protein expression level at 0.5 to 2 mg/kg,ip administrated for 4 weeks by immunofluorescence staining analysis", "type": "functional, organism-based", "settings": "dose 0.5-2 mg/kg"}},
  "note": "Active and inactive are the calls of the source. The calls are words filed in the database; no cut-off is given here.",
  "data": [
    {"compound": "CC1(C)CC[C@]2(C(=O)NCCCCCNc3cccc4c3C(=O)N(C3CCC(=O)NC3=O)C4=O)CC[C@]3(C)[C@H](C(=O)C=C4C5(C)C=C(C#N)C(=O)C(C)(C)[C@@H]5CC[C@]43C)[C@@H]2C1", "note": "(single isomer, unassigned)", "values": [
      {"measurement": "Activity", "setting": "Mus musculus [1]", "result": "Active"},
      {"measurement": "Activity", "setting": "Mus musculus [2]", "result": "Active"},
      {"measurement": "DC50", "setting": "[3]", "result": 210, "unit": "nM"},
      {"measurement": "Activity", "setting": "[4]", "result": "Non-Toxic"},
      {"measurement": "Activity", "setting": "[5]", "result": "inactive"},
      {"measurement": "Activity", "setting": "[6]", "result": "Non-Toxic"},
      {"measurement": "Activity", "setting": "AML12 [7]", "result": "inactive"},
      {"measurement": "Activity", "setting": "AML12 [8]", "result": "Active"},
      {"measurement": "Activity", "setting": "AML12 [9]", "result": "Non-Toxic"},
      {"measurement": "Activity", "setting": "Mus musculus [10]", "result": "Active"},
      {"measurement": "Activity", "setting": "[11]", "result": "Non-Toxic"},
      {"measurement": "Activity", "setting": "[12]", "result": "Active"},
      {"measurement": "Activity", "setting": "[13]", "result": "Non-Toxic"},
      {"measurement": "Activity", "setting": "Mus musculus [14]", "result": "Active"},
      {"measurement": "Activity", "setting": "[15]", "result": "Non-Toxic"},
      {"measurement": "Activity", "setting": "[16]", "result": "Non-Toxic"},
      {"measurement": "Activity", "setting": "[17]", "result": "Non-Toxic"},
      {"measurement": "Activity", "setting": "[18]", "result": "Non-Toxic"},
      {"measurement": "Activity", "setting": "Mus musculus [19]", "result": "Dose-Dependent Effect"},
      {"measurement": "Activity", "setting": "AML12 [20]", "result": "Active"},
      {"measurement": "Activity", "setting": "Mus musculus [21]", "result": "Dose-Dependent Effect"},
      {"measurement": "Activity", "setting": "[22]", "result": "Non-Toxic"},
      {"measurement": "Activity", "setting": "[23]", "result": "Non-Toxic"},
      {"measurement": "Activity", "setting": "AML12 [24]", "result": "Active"},
      {"measurement": "Activity", "setting": "AML12 [25]", "result": "Active"},
      {"measurement": "Activity", "setting": "[26]", "result": "Active"},
      {"measurement": "Activity", "setting": "AML12 [27]", "result": "Active"},
      {"measurement": "Activity", "setting": "[28]", "result": "Non-Toxic"},
      {"measurement": "Activity", "setting": "AML12 [29]", "result": "Active"},
      {"measurement": "Activity", "setting": "Mus musculus [30]", "result": "Dose-Dependent Effect"}
    ]}
  ]
}
